The record followed here is patent US11142547B2, “Polypeptide and use thereof” (Genoimmune Therapeutics Co., Ltd., priority 2016, dated 2021).

The subject of the test is T2 cells loaded with polypeptide. Briefly: CD8+ T cell killing activity by LDH release assay. The test is classed as cell-based, human. To be noted: T cells activated by listed polypeptide; for Killing of T2 cells loaded with the mutant polypeptide (in words) / Killing of T2 cells loaded with the wild-type polypeptide (in words): effector:target 1:1 or 1:10; for Killing efficiency: 4 hours. The procedure: The mixture of cells collected in the example 3 were incubated with the T2 cells loaded with the mutant polypeptide (depicted in […], SEQ ID NO:1) or the wild-type polypeptide (depicted in […], SEQ ID NO:5), or the T2 cells without polypeptide respectively for 4 hours; after which 50 μL cell supernatant collected from each well was individually added into 50 μL substrate mixture of LDH for catalyzation of the LDH substrate, and the absorbance at wavelengths of 490 nm and 680 nm (as a reference) is measured, where a maximum release well, a volume correction well, a medium alone well, a spontaneous release well of effector cell and a spontaneous release well of target well as different control wells, as well effector cells (T cells) and target cells (T2 cell) in different ratios as experiment wells are set in triplicate.
The killing efficiency of CD8^+ T cells to T2 cells is calculated by the following formula: Killing efficiency (%)=(experiment well−spontaneous release well of effector cell−spontaneous release well of target well+medium alone well)/(maximum release well of target well−volume correction well−spontaneous release well of target well+medium alone well)×100%.
PMS) and reduced lodonitrotetrazolium chloride (INT) or Nitrotetrazolium Blue chloride (NBT), thus the viability of effector cells can be calculated according to the OD value.
(LDH in the medium is a marker of cell lysis.)

Setting [1] is: effector:target 1:1, T2 cells loaded with mutant FLLGNLFFV
Setting [2] is: effector:target 1:1, T2 cells loaded with wild-type FLLGNLSFV
[3] abbreviates: effector:target 10:1, T2 cells loaded with mutant FLLGNLFFV
Setting [4] is: effector:target 10:1, T2 cells loaded with wild-type FLLGNLSFV

Turning to FLLGNLFFL, the “Killing of T2 cells loaded with the mutant polypeptide (in words)” value is “capable of killing” and the “Killing of T2 cells loaded with the wild-type polypeptide (in words)” value is reported as “could not kill”. This sequence also registered a Killing efficiency under setting [1] of 8.53%. The same sequence gave a Killing efficiency under setting [2] of 3.12%. For the same sequence, under setting [3], the Killing efficiency is given as 41.66%. For the same sequence, the Killing efficiency under setting [4] came to 5.71%.
For FMLGNLFFL, the “Killing of T2 cells loaded with the mutant polypeptide (in words)” value is “capable of killing” and the “Killing of T2 cells loaded with the wild-type polypeptide (in words)” value is listed as “could not kill”. This sequence also showed a Killing efficiency under setting [1] of 8.03%. This sequence also displayed a Killing efficiency under setting [2] of 2.85%. The sequence also had a Killing efficiency under setting [3] of 38.66%. Moreover, the Killing efficiency under setting [4] was 5.43%.
As for FLLGNLFFV, the “Killing of T2 cells loaded with the mutant polypeptide (in words)” value was “capable of killing” and the “Killing of T2 cells loaded with the wild-type polypeptide (in words)” value is “could not kill”. For the same sequence, the Killing efficiency under setting [1] is given as 8.96%. Also, the Killing efficiency under setting [2] came out at 3.23%. In addition, under setting [3], the Killing efficiency worked out at 43.89%. Under setting [4], this sequence displayed a Killing efficiency of 6.63%.
Turning to FMLGNLFFV, the “Killing of T2 cells loaded with the mutant polypeptide (in words)” value is “capable of killing” and the “Killing of T2 cells loaded with the wild-type polypeptide (in words)” value was “could not kill”. In addition, under setting [1], the Killing efficiency worked out at 8.12%. Under setting [2], this sequence yielded a Killing efficiency of 2.37%. Moreover, the Killing efficiency under setting [3] was 39.82%. Under setting [4], this sequence yielded a Killing efficiency of 4.93%.
